# Measured values published in patent US10610573B2, “NDP-MSH for treatment of inflammatory and/or neurodegenerative disorders of the central nervous system” (Westfaelische Wilhelms—Universitaet Muenster, priority 2013, dated 2020).
# What was measured:
# DEREG mice = test: EAE in Treg-depleted DEREG mice; assay type: in vivo, mouse; details: Treg depleted by diphtheria toxin, 5 μg i.v. every 48 hours
# Text: Treg were depleted in DEREG mice as described by Lahl et al. (2007) by systemic treatment with diphtheria toxin. Subsequently, EAE was induced as described in FIG. 1.
# Subsequently, EAE was induced as described in Ex. 1.
# [1] = tested on: C57BL/6 mice with experimental autoimmune encephalomyelitis (EAE); test: MOG35-55-induced EAE, therapeutic systemic NDP-MSH treatment; assay type: in vivo, mouse; details: 5 μg NDP-MSH i.v. every 48 h from clinical score 2-3 (day 12), vs PBS
# Experimental: FIG. 1 Effect of systemic NDP-MSH treatment on ongoing Experimental Autoimmune Encephalomyelitis (EAE). C57BL/6 mice were actively immunized by subcutaneous injection of myelin oligodendrocyte glycoprotein (MOG35-55) emulsified in Complete Freund's Adjuvant and systemically treated with 5 μg NDP-MSH or PBS every 48 hours beginning at a clinical score of 2-3. Mice were monitored for clinical score (A) and body weight (B) and sacrificed at day 17. Data from n=17 mice in each group is depicted, *, p<0.05 versus PBS-treated controls.
# To investigate whether NDP-MSH is able to inhibit autoimmunity and inflammation in organs different from the skin, such as the central nervous system (CNS), the mouse model of experimental autoimmune encephalomyelitis (EAE), a T cell-mediated inflammatory autoimmune disease resembling human multiple sclerosis, was used.
# Therefore, C57BL/6 mice were actively immunized by subcutaneous injection of myelin oligodendrocyte glycoprotein (MOG35-55) emulsified in Complete Freund's Adjuvant at the back skin (day 0). At day 0 and day 2 mice received intraperitoneal injections of 400 ng pertussis toxin and disease development was monitored daily. […] All mice were sacrificed at day 17 and analyzed on a cellular and molecular level. […]
# Nur77 = Nur77 expression in NDP-MSH stimulated neurons; assay type: cell-based; details: vs vehicle-treated controls
# dendritic cells = test: DC phenotype in regional lymph nodes of immunized mice; assay type: in vivo, mouse; details: vs PBS
# Experimental: FIG. 5 Generation of tolerogenic dendritic cells by NDP-MSH treatment. The DC phenotype in regional lymph nodes from immunized NDP-MSH and PBS treated mice was analyzed. One representative dot plot (A) as well as the statistical evaluation from n=2-6 mice (B) is depicted. Cells are gated for MHCII and IL-10 as well as IFN-γ staining was performed after cell permeabilization. *, p<0.05 versus PBS treated mice.
# Further, the DC phenotype in regional lymph nodes from immunized NDP-MSH and PBS treated mice was analyzed.
# MC-1R deficient mice = test: EAE in MC-1R deficient mice; assay type: in vivo, mouse; details: treated as in Ex. 1
# Text: FIG. 6 Involvement of the melanocortin-1 receptor in effects of NDP-MSH on EAE progression. EAE was induced in MC-1R deficient mice as described in FIG. 1. Subsequently, disease development was monitored over time.
# To investigate whether the NDP-MSH induced effects on the progression of EAE were mediated via binding to a functional MC-1R, EAE was induced in MC-1R deficient mice with a point mutation in the MC-1R gene resulting in a truncated protein (Roberts et al., 1993). Mice were immunized with MOG35-55, injected with pertussis toxin and treated with NDP-MSH or PBS as described in Ex. 1. Subsequently, disease development was monitored over time.
# Devic mice = test: Spontaneous EAE model (Devic mice); assay type: in vivo, mouse
# Experimental: FIG. 7 Devic mice at the age of 38 days and a clinical score of 7 (severe hind limb paralysis) were injected intravenously with 5 μg NDP-MSH every other day for 3 weeks. […] Disease progression was monitored over time.
# To characterize the effects of NDP-MSH in a spontaneous EAE model Devic mice were used. Devic mouse mutants express transgenic T- and B-cell receptors specific for MOG and spontaneously develop EAE at the age of 4-5 weeks (Bettelli et al., 2006).
# Starting at the age of 38 days when mice reached a clinical score of 7 (severe hind limb paralysis) animals were injected intravenously with 5 μg NDP-MSH every other day. […] Part of the mice almost completely recovered from disease. At day 60, NDP-MSH treatment was interrupted and mice were monitored for the onset of clinical symptoms.
# effector T cells = test: Suppression of effector T cell proliferation in vitro by Treg from treated mice; assay type: cell-based, mouse
# [2] = tested on: Foxp3+ regulatory T cells; test: Flow cytometry of Foxp3+ regulatory T cells from brain tissue of EAE mice; assay type: in vivo, mouse; details: day 17 post immunization, vs controls
# Experimental: FIG. 4 Induction of functional regulatory T cells in the CNS by NDP-MSH treatment. Numbers, phenotype, and function of Foxp3^+ regulatory T cells isolated from brain tissue of NDP-MSH and PBS treated mice were analyzed. One representative dotplot (A) as well as the statistical evaluation from n=6 mice (B) is depicted. Cells are gated for CD4 and Foxp3 as well as Helios staining was performed after cell permeabilization. *, p<0.05 versus PBS treated mice.
# Numbers, phenotype and function of Foxp3^+ regulatory T cells (Treg) isolated from brain tissue of NDP-MSH and PBS treated mice as described in Ex. 1 was analyzed at day 17 post immunization by flow cytometry analysis.
# MOG-immunized mice = test: MOG-induced EAE, preemptive NDP-MSH injection; assay type: in vivo, mouse; details: preemptive injection before onset of hind limb paralysis
# Text: The neuropeptide α-MSH is a potent immunomodulator capable of inducing immunosuppression and tolerance. Using the mouse model of experimental autoimmune encephalomyelitis (EAE) the present inventors systemically treated MOG-immunized mice with NDP-MSH before and after the onset of hind limb paralysis. […] Since signaling via melanocortin-1-receptor (MC-1R) mediates the immunomodulatory effects of α-MSH, EAE was induced in MC-1R-deficient mice.
# brain tissue of EAE mice = test: Histology and immunofluorescence of brain tissue from EAE mice; assay type: in vivo, mouse; details: day 17 post immunization, vs PBS
# Experimental: FIG. 2 Histological analyses of brain tissue obtained from mice treated as described in FIG. 1. […] One representative image for each group (+NDP-MSH, +PBS) is shown.
# Brain tissue from mice treated with NDP-MSH or PBS at day 17 post immunization obtained from Ex. 1 was analyzed. […] One representative overview (A) as well as a sectional enlargement (B) is depicted for each group. […] One representative image for each group is shown.
# CD11c-DTR mice = test: EAE in DC-depleted CD11c-DTR mice; assay type: in vivo, mouse; details: DC depleted by diphtheria toxin, 5 μg i.v. every 48 hours
# Experimental: DC were depleted in C11c-DTR mice as described by Hochweller et al. (2008) by systemic treatment with diphtheria toxin. Subsequently, EAE was induced as described in FIG. 1. 5 μg NDP-MSH were injected intravenously every 48 hours and disease progression was monitored over time.
# [3] = tested on: rat primary astrocytes and microglia; details: in vitro, via MC-4R signaling; cited from earlier work
# primary mouse neurons = test: Glutamate-stimulated primary neurons, apoptosis genes and neuronal damage; assay type: cell-based
# Experimental: FIG. 10 Expression of pro-apoptotic (caspase-8) and anti-apoptotic (Bcl-2) genes in primary mouse neurons after treatment with […] Glutamat or 50 μM Glutamat+1 nM NDP-MSH. Primary murine neurons were stimulated with glutamate which results in apoptosis (increased expression of pro-apoptotic caspase-8 and a reduced expression of anti-apoptotic Bcl-2 relative to PBS-treated controls).
# The neuroprotective role of NDP-MSH was further confirmed analyzing neurons from NDP-MSH-treated animals and vehicle-treated controls (isolated before and after MOG immunization) using histological staining tests for the detection of myelin, NeuN, act. Caspase 3 and TUNEL. Further, in vitro stimulation of neurons from embryonic mice with glutamate—which causes cell damage—in the presence or absence of NDP-MSH and subsequent histological staining tests for the detection of myelin, NeuN, act. […] Thus, a neuroprotective effect of NDP-MSH is a very likely explanation for the observed effect in the EAE model.
# [4] = tested on: Th1 and Th17 cells in the CNS; test: Flow cytometry of pathogenic Th1 and Th17 cells in the CNS of EAE mice; assay type: in vivo, mouse; details: day 17 post immunization, brain and spinal cord, n=8, vs PBS controls
# Experimental: FIG. 3 Effect of NDP-MSH treatment of numbers of pathogenic Th1 and Th17 cells in the CNS. At day 17 post immunization brain and spinal cord from EAE mice treated with PBS and NDP-MSH as described for FIG. 1 were isolated. Cells were analyzed by multi-color flow cytometry using antibodies against CD4, IL-17, ROR-γt, IFN-γ and T-bet. One representative image (A) as well as the statistical evaluation from n=8 mice in each group (B) is shown, Cells are gated for CD4 and IL-17, ROR-γt, IFN-γ as well as T-bet staining was performed after cell permeabilization.
# Reduced numbers of pathogenic Th1 and Th17 cells in the CNS from NDP-MSH treated mice compared to PBS-treated controls. At day 17 post immunization brain and spinal cord were isolated from PBS- and NDP-MSH-treated mice and single cell suspensions were prepared using density gradient centrifugation. Subsequently, cells were analyzed by multi-color flow cytometry using antibodies against CD4, IL-17, ROR-gt, IFN-g and T-bet. […] Cells are gated for CD4 and IL-17, ROR-gt, IFN-g as well as T-bet staining was performed after cell permeabilization.
# [5] = rat, in vivo; cited from earlier work
# [6] = 50 μM glutamate + 1 nM NDP-MSH vs glutamate alone
substance,measurement,setting,value
"[Nle^4, D-Phe^7]-α-MSH [NDP-MSH]",disease severity,DEREG mice,reduced disease severity
same,body weight,[1],started gaining weight after the first injection
same,paralysis (clinical score),[1],recovered from paralysis
same,Nur77 receptor expression,Nur77,induction of the neuroprotective Nur77 receptor
same,DC expression of PD-L1 or IL-10,dendritic cells,increased levels
same,DC maturation markers CD80 and IFN-γ,dendritic cells,down-regulated
same,disease development (hind limb paralysis),MC-1R deficient mice,developed hind limb paralysis similar to PBS treated controls
same,disease course (clinical symptoms of EAE),"Devic mice; 5 μg i.v. every other day for 3 weeks from day 38, clinical score 7",significant amelioration of disease in all animals
same,body weight,"Devic mice; 5 μg i.v. every other day for 3 weeks, vs PBS",gained weight
same,disease recurrence after treatment interruption,"Devic mice; treatment interrupted at day 60, several weeks without injection",no disease recurrence
same,function of Treg from treated mice: proliferation of effector T cells,effector T cells,efficiently inhibited the proliferation of effector T cells
same,numbers of Foxp3+ Treg expressing Helios or CTLA-4 in brain tissue,[2],present at higher numbers
same,EAE development,MOG-immunized mice,resistant to EAE development
same,expression of tissue destruction marker APP in the brain,brain tissue of EAE mice; immunofluorescence,Dramatically reduced expression
same,expression of tissue inflammation marker RILPL2 in the brain,brain tissue of EAE mice; immunofluorescence,Dramatically reduced expression
same,mononuclear pro-inflammatory cells infiltrating the brain (H&E staining),brain tissue of EAE mice,almost no cell infiltrates were detectable
same,myelination of the brain (luxol fast blue staining),brain tissue of EAE mice,tremendous re-myelination
same,disease onset,CD11c-DTR mice,prevented disease onset
same,release of IL-10 and TGF-β,[3],stimulates the release of IL-10 and TGF-β
same,expression of anti-apoptotic Bcl-2,primary mouse neurons; [6],increased expression of anti-apoptotic Bcl-2
same,expression of pro-apoptotic caspase-8,primary mouse neurons; [6],reduced expression of pro-apoptotic caspase-8
same,"glutamate-induced neuronal damage (myelin, NeuN, act. Caspase 3, TUNEL staining)","primary mouse neurons; neurons from embryonic mice, in vitro",reduce the glutamate-induced neuronal damage
same,reduced infiltration of Th1 cells in the CNS,[4],2 factor
same,reduced infiltration of Th17 cells in the CNS,[4],5 factor
melanotan-II,nerve regeneration and neuroprotection,[5],effective in nerve regeneration and neuroprotection
